Read-outs that look alike come from different tables or passages of the source.
Key:
[1] = test system: panel of 35 human lymphoma cell lines; test: CellTiter-Glo cell viability, lymphoma cell line panel (OmniScreen); type: cell-based
Experimental: (§1) Human DLBCL cell lines SU-DHL-4 (#ACC 495) and SU-DHL-10 (#ACC 576) were obtained from DSMZ (German Collection of Microorganisms and Cell Cultures). The supplier used PCR-based DNA profiling of polymorphic short tandem repeats for authentication and Mycoplasma testing prior to shipment. Cells were cultured in suspension at 37°C in a humidified atmosphere containing 5% CO2. CDK9 inhibitors KB-0742 (MedChemExpress, #HY-137478A), enitociclib, and atuveciclib ([…] Pharma, Inc.) were used. A subset of 35 lymphoma cell lines is from a 500-cell line panel where the effect of enitociclib on cell viability using CellTiter-Glo luminescent cell viability was determined (OmniScreen, CrownBioscience). Genetic status and gene expression level for MYC and MCL1 was obtained from CrownBioscience.

[2] = test system: SU-DHL-10; test: CellTiter-Glo cell viability, SU-DHL-10; type: cell-based; settings: Homo sapiens, SU-DHL10
Experimental: as §1

[3] = test system: Myc and Mcl-1 protein in SU-DHL-10 cells; test: In vitro washout, Myc and Mcl-1 protein Western blot, SU-DHL-10; type: cell-based, human; settings: 1 µmol/L, 4 h treatment then washout
Experimental: (§2) Evaluation of the pharmacodynamic extent and duration of CDK9 inhibition were performed in vitro using the human DLBCL cell lines SU-DHL-4 and SU-DHL-10, harboring MYC amplification and MYC overexpression with P57T mutation, respectively. Cells were seeded 18 hours prior to treatment for 4 hours with one of three CDK9 inhibitors, enitociclib (0.25 and1 µmol/L), atuveciclib (1 µmol/L) or KB-0742 (1 µmol/L), cells were washed, and incubation continued until 48 hours posttreatment. Samples were collected before treatment (−4), immediately after treatment (0), and at 1, 2, 4, 8, 12, 16, 24, and 48 hours after washout for RNA sequencing (RNA-seq), qPCR, and Western blotting analyses.
(§3) The levels of p-Ser2, p-Ser5 and total RNA polymerase II, Myc, Mcl-1, cleaved PARP (cPARP), and cleaved Caspase 3 were assessed by Western blotting and quantified near-infrared detection and background corrected quantification of fluorescence intensity on an Odyssey Imaging System with IRDye secondary antibodies (LI-COR Biosciences). For quantification, the protein levels were normalized to GAPDH or HSP90, expressed as a ratio to DMSO or vehicle control at matched timepoints. The normalized relative protein levels of p-Ser2 were used for a treatment effect comparison by performing an ANOVA using PROC MIXED in SAS. The ANOVA model included treatment, timepoints and their interactions as fixed effects. […]

[4] = test system: Myc and Mcl-1 protein in SU-DHL-4 cells; test: In vitro washout, Myc and Mcl-1 protein Western blot, SU-DHL-4; type: cell-based, human; settings: 0.25 µmol/L enitociclib, atuveciclib (1 µmol/L)
Experimental: as §2, §3

[5] = test system: Mcl-1 protein in SU-DHL-10 tumors; test: Pharmacodynamics in SU-DHL-10 xenograft tumors, Mcl-1 protein; type: in vivo, C.B-17 SCID mice; settings: single dose; within 4 to 8 hours postdose
Experimental: The levels of p-Ser2, p-Ser5 and total RNA polymerase II, Myc, Mcl-1, cleaved PARP (cPARP), and cleaved Caspase 3 were assessed by Western blotting and quantified near-infrared detection and background corrected quantification of fluorescence intensity on an Odyssey Imaging System with IRDye secondary antibodies (LI-COR Biosciences). For quantification, the protein levels were normalized to GAPDH or HSP90, expressed as a ratio to DMSO or vehicle control at matched timepoints. The normalized relative protein levels of p-Ser2 were used for a treatment effect comparison by performing an ANOVA using PROC MIXED in SAS. The ANOVA model included treatment, timepoints and their interactions as fixed effects. The least square means (LSM), differences between the LSMs and associated P values were generated. The following primary antibodies were used: Rpb1 NTD (D8L4Y) rabbit antibody [Cell Signaling Technology (CST), #14958], anti-RNA polymerase II subunit B1 (phospho CTD Ser-2, clone 3E10) rat antibody (Merck, 04-1571-I), recombinant anti-c-MYC rabbit antibody (Y69; Abcam, #ab32072), MCL1 (D5V5L) rabbit antibody (CST, #39224), cleaved-PARP (Asp214) (E2T4K) mouse antibody (CST, #32563), HSP90 (C45G5) rabbit antibody (CST, #4877), and GAPDH mouse antibody (Zytomed Systems, #ZYT-RGM2-6C5). […]

[6] = test system: PHF23, TP53RK, ZFP36 and JUNB mRNA in blood; test: RNA-seq DEGs in blood of patients (PHF23, TP53RK, ZFP36, JUNB); type: in vivo, human
Experimental: Total RNA was extracted from blood of patients and cell lines using RNeasy Plus Mini Kit (QIAGEN, #74136) and cDNA prepared with the Maxima First Strand cDNA Synthesis Kit for RT-PCR (Thermo Fisher Scientific, K1642) according to manufacturer's instructions. The integrity of purified total RNA was evaluated using an Agilent 2100 Bioanalyzer system and RNA 6000 Nano Kit (Agilent, #5067-1511). Differential gene expression analysis was performed (Fios Genomics) from RNA-seq data (Discovery Life Sciences). MYC and MCL1 mRNA levels were measured by qPCR in vitro and in vivo, using a Taqman qPCR system (Thermo Fisher Scientific), TaqMan Fast Universal PCR Master Mix (2X) no AmpErase (#4352042) and TaqMan probes for MYC (Hs00153408_m1) and MCL1 (Hs03043899_m1). RNA-seq data were analyzed using DESeq2 ([35]).
Fifteen patients with refractory or relapsed DH-DLBCL or other MYC+ NHL were treated with enitociclib (30 mg, 21-day cycle, once weekly x3) as a 30-minute intravenous infusion on study days 1, 8, and 15 (NCT02635672). Longitudinal gene expression levels were analyzed by RNA-seq, and enitociclib plasma concentrations were measured using LC/MS-MS. The clinical study protocol was approved by the Institutional Review Board of participating institutions and complied with the Declaration of Helsinki, current Good Clinical Practice guidelines, and local laws and regulations. Written informed consent was provided by all participants prior to the initiation of any study-specific procedure.
RNA-seq data generated from the analysis of two cell lines treated with the three CDK9 inhibitors was analyzed to investigate the differences in gene expression levels between various posttreatment timepoints and the pretreatment samples. Quality control assessment and exploratory data analysis by principal component analysis (PCA) were done on raw counts and on normalized count data. Normalization of RNA-seq count data was done using trimmed mean of M-values normalization and transformed with voom, resulting in log2 counts per million with associated precision weights. […] Significance values (Padj) were adjusted for multiple testing, by controlling the FDR using the Benjamini–Hochberg procedure. […] RNA-seq data generated from blood samples taken from patients before and after their first dose (C1D1) or after multiple doses, before and after their third dose (C1D15) were analyzed and normalized using the same pipeline as cell lines for comparisons.

[7] = DH-DLBCL and other MYC+ NHL, after C1D1 and C1D15

SMILES: COc1cc(F)ccc1-c1cc(Nc2cc(CS(C)(=N)=O)ccn2)ncc1F (centres unmarked) [enitociclib]
- IC50 ([1]; Homo sapiens, lymphoma cell lines, media fu = 66.6%, read-out: mean unbound IC50 for cytotoxicity): ~0.067 µM
- IC50 ([1]; range over panel of 35 human lymphoma cell lines, read-out: IC50 (cell cytotoxicity)): 0.043 to 0.152 µM
- IC50 [2]: 0.074 µM
- duration of sustained Myc and Mcl-1 protein depletion [3]: 48 h
- sustained Myc and Mcl-1 protein depletion for 48 hours (in words) [4]: this was achieved
- Mcl-1 protein levels in tumors (in words) [5]: robustly decreased
- PHF23 mRNA fold change from predose [6, 7]: approximately –1 fold change
- TP53RK mRNA fold change from predose [6, 7]: –2 fold change
- Downregulation of ZFP36 and JUNB mRNA levels ([6]; other MYC+ NHL (n = 3), after C1D1): approximately −2 fold change
- Downregulation of ZFP36 and JUNB mRNA levels ([6]; other MYC+ NHL (n = 3), after C1D15 (decreased toward)): ~−1
- Downregulation of ZFP36 and JUNB mRNA levels ([6]; patients with DH-DLBCL, after C1D1 and C1D15): > −2

From publication PMC10634346 (Cancer Research Communications, 2023)
